Experimental findings from patent US7427625B2, “Substituted thiatriazaacenaphthylene-6-carbonitrile kinase inhibitors” (Janssen Pharmaceutica, N.V., priority 2006, dated 2008) are described below.

As usually defined, the IC50 is the concentration at which inhibition is half-maximal. A higher IC50 goes with weaker potency. One may read the inhibition as the drop in the measured response relative to a control, in per cent.

The target of one experiment is T1, VEGF-R2 (Rattus norvegicus, UniProt O08775).
T1 construct: polyhistidine (N)
T1 sequence (O08775 786-1343): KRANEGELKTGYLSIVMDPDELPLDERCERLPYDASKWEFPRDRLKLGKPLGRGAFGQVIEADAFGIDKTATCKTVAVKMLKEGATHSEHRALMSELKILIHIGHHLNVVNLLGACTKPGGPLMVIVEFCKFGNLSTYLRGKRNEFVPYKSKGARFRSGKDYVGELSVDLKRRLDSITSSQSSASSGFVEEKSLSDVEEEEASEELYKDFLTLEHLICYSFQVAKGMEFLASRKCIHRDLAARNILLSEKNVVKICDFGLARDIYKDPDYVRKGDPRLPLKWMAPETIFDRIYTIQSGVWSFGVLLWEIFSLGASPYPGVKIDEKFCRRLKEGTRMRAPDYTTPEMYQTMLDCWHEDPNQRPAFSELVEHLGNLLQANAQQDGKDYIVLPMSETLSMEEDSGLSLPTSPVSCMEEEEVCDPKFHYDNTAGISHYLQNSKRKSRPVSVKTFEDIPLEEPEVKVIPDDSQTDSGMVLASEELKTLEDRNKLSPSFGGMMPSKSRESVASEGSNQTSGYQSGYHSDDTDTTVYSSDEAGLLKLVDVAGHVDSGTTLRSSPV
The experiment can be described thus: VEGF-R2 Screening Assay. Format: biochemical.

The target in another experiment is T2, Aurora-A (Mus musculus, UniProt P97477).
T2 construct: followed by the full length protein encoding the murine Aurora-A; polyhistidine (N); made in house; host or cells: sf9 insect cells
T2 sequence (P97477 1-395): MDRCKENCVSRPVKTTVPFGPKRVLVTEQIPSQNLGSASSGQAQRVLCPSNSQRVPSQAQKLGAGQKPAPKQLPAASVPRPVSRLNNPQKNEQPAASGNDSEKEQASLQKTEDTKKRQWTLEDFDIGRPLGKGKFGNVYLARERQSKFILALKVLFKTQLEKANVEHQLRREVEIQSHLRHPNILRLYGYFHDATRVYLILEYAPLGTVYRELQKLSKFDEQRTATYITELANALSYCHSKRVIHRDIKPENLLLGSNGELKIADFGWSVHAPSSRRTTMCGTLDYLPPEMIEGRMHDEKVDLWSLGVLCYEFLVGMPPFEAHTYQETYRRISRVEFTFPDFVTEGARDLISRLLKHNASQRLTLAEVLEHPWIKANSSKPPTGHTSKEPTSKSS
The experiment can be described thus: Aurora-A Screening Assay. Type of experiment: biochemical, murine.

In a further experiment the target is T3, c-Src kinase (Homo sapiens, UniProt P12931).
T3 construct: purchased Upstate Biotechnology, Lake Placid, N.Y
T3 sequence (P12931 whole entry): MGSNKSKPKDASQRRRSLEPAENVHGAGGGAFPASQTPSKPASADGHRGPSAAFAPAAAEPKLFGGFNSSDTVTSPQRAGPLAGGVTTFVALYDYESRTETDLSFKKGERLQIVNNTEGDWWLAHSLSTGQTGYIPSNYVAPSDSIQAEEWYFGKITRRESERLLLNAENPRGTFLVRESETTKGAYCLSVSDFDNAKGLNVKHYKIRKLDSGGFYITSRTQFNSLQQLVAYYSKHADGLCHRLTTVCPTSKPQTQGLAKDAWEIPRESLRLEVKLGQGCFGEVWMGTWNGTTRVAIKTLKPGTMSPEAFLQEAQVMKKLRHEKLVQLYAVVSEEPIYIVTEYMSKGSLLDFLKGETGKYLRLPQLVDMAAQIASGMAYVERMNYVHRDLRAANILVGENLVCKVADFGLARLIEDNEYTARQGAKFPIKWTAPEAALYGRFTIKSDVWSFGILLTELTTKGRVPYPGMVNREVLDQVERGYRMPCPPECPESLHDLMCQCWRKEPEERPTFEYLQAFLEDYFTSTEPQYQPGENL
The experiment can be described thus: c-Src Kinase Assay. Type of experiment: biochemical. The settings on record: test concentration of 2 μM; read-out: c-Src percent inhibition. The protocol:
A mixture of a 10× kinase buffer (80 mM MOPS at pH 7.0, 2 mM EDTA and 100 mM Magnesium Chloride), ATP (5 μM final from a 10 mM stock), a Cdc2 peptide KVEKIGEGTYVVYK (100 μM final from a 2.5 mM stock), γ-^33P ATP (10 μCi/μL stock) and water (20 μL/well) was added to each well of a Streptavidin Flashplate.
Test compound in 100% DMSO (0.5 μL) was added to the appropriate wells. Diluted c-Src kinase (human) (Upstate Biotechnology, Lake Placid, N.Y.) (diluted in a buffer consisting of 20 mM MOPS at pH 7.0, 1 mM EDTA, β-mercaptoethanol (0.1%), Brij-35 (0.01%), glycerol (5%) and 1 mg/mL bovine serum albumin) (2.5 μL) was added to the wells to initiate the reactions. The reaction plates were incubated at 30° C. for 40 min. The reaction was terminated by the addition of a 3% phosphoric acid solution (5 μL). The reaction product (10 μL) was spotted onto a P30 filtermat and washed for 5 minutes in phosphoric acid (75 mM). The wash sequence was repeated two more times, followed with one final wash in methanol. The plates were then dried, sealed and read on the TopCount scintillation counter after adding 30 μL scintillation fluid.
Percent inhibition was derived according to the procedure described in Example 2. For those compounds without an IC50, the percent inhibition results are shown at a test concentration of 2 μM.

Another experiment concerns the target T4, HER-2 (Homo sapiens, UniProt P04626).
T4 construct: the nucleotides encoding amino acids 679 to 1255 of HER-2; purchased Proqinase (Freiburg, Germany)
Put plainly: HER-2 Kinase Assay. Format: biochemical. The method, boiled down:
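GST-HIS6-thrombin fusion of HER-2 residues 679–1255, assayed with biotinylated polyGluTyr, 1 μM ATP plus γ-33P-ATP, Mg2+, Mn2+ and vanadate in Hepes pH 7.5 for 1 h at 30 °C. Incorporation read by streptavidin Flashplate scintillation counting; IC50 values, or % inhibition at 1 μM.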

T4 sequence (P04626 679-1255): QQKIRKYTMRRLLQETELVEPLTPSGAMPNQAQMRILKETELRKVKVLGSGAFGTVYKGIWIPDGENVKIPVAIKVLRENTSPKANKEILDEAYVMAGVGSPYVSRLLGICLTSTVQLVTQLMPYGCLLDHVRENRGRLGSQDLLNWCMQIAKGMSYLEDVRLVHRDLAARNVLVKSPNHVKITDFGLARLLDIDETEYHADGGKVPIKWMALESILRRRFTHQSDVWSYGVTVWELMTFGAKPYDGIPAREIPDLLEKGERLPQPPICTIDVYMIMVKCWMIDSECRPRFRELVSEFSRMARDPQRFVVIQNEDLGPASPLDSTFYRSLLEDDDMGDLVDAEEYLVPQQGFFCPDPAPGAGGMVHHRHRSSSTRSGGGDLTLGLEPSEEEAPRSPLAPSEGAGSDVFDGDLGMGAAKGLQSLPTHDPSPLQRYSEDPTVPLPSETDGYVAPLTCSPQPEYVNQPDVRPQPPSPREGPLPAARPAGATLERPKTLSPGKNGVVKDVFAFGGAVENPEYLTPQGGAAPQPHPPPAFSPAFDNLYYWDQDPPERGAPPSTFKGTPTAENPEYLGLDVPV

As for `N#Cc1cnc2sc(C(=O)Nc3ccc(CCN4CCOCC4)cc3)c3c2c1N(c1c(Cl)ccc2c1OCO2)C(=O)N3` [Cpd 13, 5-(5-chloro-benzo[1,3]dioxol-4-yl)-6-cyano-4-oxo-4,5-dihydro-3H-1-thia-3,5,8-triaza-acenaphthylene-2-carboxylic acid [4-(2-morpholin-4-yl-ethyl)-phenyl]-amide], the IC50 against VEGF-R2 is over 10 µM; on Aurora-A it was 5.93 µM; against HER-2 it was over 1 µM. The inhibition at 2 µM on c-Src kinase was determined as 78%.
With `CCOC(=O)c1sc2nc(O)c(C#N)c3c2c1NC(=O)N3c1ccncc1` [Cpd 14, 6-cyano-7-hydroxy-4-oxo-5-pyridin-4-yl-4,5-dihydro-3H-1-thia-3,5,8-triaza-acenaphthylene-2-carboxylic acid ethyl ester], the IC50 against VEGF-R2, at Aurora-A and against HER-2 was over 100 µM throughout. Also, the inhibition at 2 µM at c-Src kinase stood at 11%.
Consider `CCOC(=O)c1sc2nc(-c3cc(F)ccc3Cl)c(C#N)c3c2c1NC(=O)N3c1ccncc1` [Cpd 15, 7-(2-chloro-5-fluoro-phenyl)-6-cyano-4-oxo-5-pyridin-4-yl-4,5-dihydro-3H-1-thia-3,5,8-triaza-acenaphthylene-2-carboxylic acid ethyl ester], for which the concentration for half-maximal inhibition (IC50) on VEGF-R2, against Aurora-A and on HER-2 was over 100 µM each time. For the same molecule, at c-Src kinase, the inhibition at 2 µM is -0.6%.
At VEGF-R2, `CC1CCN(Cc2ccc(NC(=O)c3sc4ncc(C#N)c5c4c3NC(=O)N5c3c(Cl)ccc4c3OCO4)cc2)CC1` [Cpd 19, 5-(5-chloro-benzo[1,3]dioxol-4-yl)-6-cyano-4-oxo-4,5-dihydro-3H-1-thia-3,5,8-triaza-acenaphthylene-2-carboxylic acid [4-(4-methyl-piperidin-1-ylmethyl)-phenyl]-amide] showed a half-inhibitory concentration (IC50) of over 100 µM. Also, the inhibition at 1 µM stood at 9% at Aurora-A (test concentration of 1 μM, read-out: Aurora-A percent inhibition) and 49% on HER-2 (test concentration of 1 μM, read-out: HER-2 percent inhibition). For the same molecule, the inhibition at 2 µM at c-Src kinase was 90%.
